Patent US8309515B2, “Poly(ethylene oxide)-block-poly(ester) block copolymers” (priority 2006, dated 2012)

Tests used:
[1] = tested on: B16-BL6 mouse melanoma cells; experiment: In vitro cytotoxicity, MTT assay; assay type: cell-based
Description: In vitro cytotoxicity activity of PEO-b-P(CL-DOX) and DOX loaded PEO-b-P(CL-DOX) block copolymer micelles were investigated against B16-BL6 mouse melanoma cells using MTT assay. […] After this time, MTT solution (20 μL; 5 mg/ml in sterile-filtered PBS) was added to each well and the plates were reincubated for a further 3 h. The formazan crystals were dissolved in DMSO, and the concentration was read by a Power Wave×340 microplate reader (Bio-Tek Instruments, Inc. USA) at 550 nm.

[2] = tested on: rat red blood cells; experiment: In vitro hemolysis against rat red blood cells; conditions: 0.1% triton-X 100, positive control
Description: Blood was freshly obtained from a Sprague-Dawley rat by cardiac puncture, mixed with sterile isotonic PBS and centrifuged at 3,000 rpm for 5 minutes. The supernatant were pipetted out and the red blood cells were diluted with isotonic sterile PBS (pH: 7.4). The proper dilution factor was estimated from the UV-Vis absorbance of hemoglobin at 576 nm in the supernatant after RBCs were lysed by 0.1% triton X 100. A properly diluted sample of RBCs gave an absorbance of 0.4 to 0.5. […] After incubation the samples were kept in ice bath to stop further hemolysis. The samples were centrifuged at 14,000 rpm for 30 sec to precipitate the intact RBC cells. The supernatant was separated and analyzed for hemoglobin by UV-Vis spectrophotometer at 576 nm. The percentage of hemolyzed RBC was calculated using the equation: % of hemolysis=100 (Abs−Abs0)/(Abs100-Abs0), where Abs, Abs0 and Abs100 are the absorbance for the sample, control with no polymer or DOX and control with 0.1% triton X 100, respectively.

Row | Compound | times lower IC50 / higher cytotoxicity than PEO-b-P(CL-DOX) micelles ([1]; 24 h incubation) [times] | times lower IC50 than PEO-b-P(CL-DOX) micelles ([1]; 48 h incubation) [times] | hemolysis [2] [%]
1 | COc1cccc2c1C(=O)c1c(O)c3c(c(O)c1C2=O)C[C@@](O)(C(=O)CO)C[C@@H]3O[C@H]1C[C@H](N)[C@H](O)[C@H](C)O1 [free DOX, doxorubicin] | 50 | 15 | –
2 | triton-X 100 | – | – | 100
